In ChEMBL document CHEMBL1145206, “Design, synthesis and structure-activity relationships of novel taxane-based multidrug resistance reversal agents” (2005):

System: MDA-MB-435
Assay: MDR-reversal activity evaluated against the resistant human breast tumor cell line MDA-435/LCC6-MDR
Format: functional
Design: concentration or dose not given beside the values

| SMILES | Reduction |
| --- | --- |
| CC(=O)O[C@H]1C(=O)[C@]2(C)[C@@H](OC(=O)Cn3ccc4ccccc43)C[C@H]3OC[C@@]3(OC(C)=O)[C@H]2[C@H](OC(=O)c2ccccc2)[C@]2(O)C[C@H](OC(C)=O)C(C)=C1C2(C)C | 83% |
| CC(=O)O[C@H]1C(=O)[C@]2(C)[C@@H](OC(=O)/C=C/c3ccc(Oc4ccccc4)cc3)C[C@H]3OC[C@@]3(OC(C)=O)[C@H]2[C@H](OC(=O)c2ccccc2)[C@]2(O)C[C@H](OC(C)=O)C(C)=C1C2(C)C | 90% |
| CC(=O)O[C@H]1C(=O)[C@]2(C)[C@@H](OC(=O)/C=C/c3ccc(C(=O)c4ccc(F)cc4)cc3)C[C@H]3OC[C@@]3(OC(C)=O)[C@H]2[C@H](OC(=O)c2ccccc2)[C@]2(O)C[C@H](OC(C)=O)C(C)=C1C2(C)C | 92% |
| CC(=O)O[C@H]1C(=O)[C@]2(C)[C@@H](OC(=O)/C=C/c3ccc(Sc4ccccc4)cc3)C[C@H]3OC[C@@]3(OC(C)=O)[C@H]2[C@H](OC(=O)c2ccccc2)[C@]23OC(=O)O[C@H]2[C@H](OC(C)=O)C(C)=C1C3(C)C | 63% |
| CC(=O)O[C@H]1C(=O)[C@]2(C)[C@@H](OC(=O)Cc3ccc(C(=O)c4ccccc4)cc3)C[C@H]3OC[C@@]3(OC(C)=O)[C@H]2[C@H](OC(=O)c2ccccc2)[C@]2(O)C[C@H](OC(C)=O)C(C)=C1C2(C)C | 41% |
| CC(=O)O[C@H]1C(=O)[C@]2(C)[C@@H](OC(=O)CCc3ccc(C(O)c4ccccc4)cc3)C[C@H]3OC[C@@]3(OC(C)=O)[C@H]2[C@H](OC(=O)c2ccccc2)[C@]2(O)C[C@H](OC(C)=O)C(C)=C1C2(C)C (stereo partly drawn) | 48% |
| CC(=O)O[C@H]1C(=O)[C@]2(C)[C@@H](OC(=O)CC3c4ccccc4-c4ccccc43)C[C@H]3OC[C@@]3(OC(C)=O)[C@H]2[C@H](OC(=O)c2ccccc2)[C@]2(O)C[C@H](OC(C)=O)C(C)=C1C2(C)C | 67% |
| CC(=O)O[C@H]1C(=O)[C@]2(C)[C@@H](OC(=O)CCc3ccc4c(c3)C(=O)c3ccccc3C4=O)C[C@H]3OC[C@@]3(OC(C)=O)[C@H]2[C@H](OC(=O)c2ccccc2)[C@]2(O)C[C@H](OC(C)=O)C(C)=C1C2(C)C | 29% |
| CC(=O)O[C@H]1C(=O)[C@]2(C)[C@@H](OC(=O)/C=C/c3ccc(O)cc3)C[C@H]3OC[C@@]3(OC(C)=O)[C@H]2[C@H](OC(=O)c2ccccc2)[C@]2(O)C[C@H](OC(C)=O)C(C)=C1C2(C)C | 34% |
| CC(=O)O[C@H]1C(=O)[C@]2(C)[C@@H](OC(=O)Cc3ccc(C(=O)c4ccccc4)cc3)C[C@H]3OC[C@@]3(OC(C)=O)[C@H]2[C@H](OC(=O)c2ccccc2)[C@]23OC(=O)O[C@H]2[C@H](OC(C)=O)C(C)=C1C3(C)C | 44% |
| CC(=O)O[C@H]1C(=O)[C@]2(C)[C@@H](OC(=O)CCCCc3ccc(C(=O)c4ccccc4)cc3)C[C@H]3OC[C@@]3(OC(C)=O)[C@H]2[C@H](OC(=O)c2ccccc2)[C@]23OC(=O)O[C@H]2[C@H](OC(C)=O)C(C)=C1C3(C)C | 0% |
| C=C(c1ccccc1)c1cccc(/C=C/C(=O)O[C@H]2C[C@H]3OC[C@@]3(OC(C)=O)[C@H]3[C@H](OCc4ccccc4)[C@]4(O)C[C@H](OC(C)=O)C(C)=C([C@@H](OC(C)=O)C(=O)[C@]23C)C4(C)C)c1 | 52% |
| CC(=O)O[C@H]1C(=O)[C@]2(C)[C@@H](OC(=O)/C=C/c3ccc4ccccc4c3)C[C@H]3OC[C@@]3(OC(C)=O)[C@H]2[C@H](OC(=O)c2ccccc2)[C@]23OC(=O)O[C@H]2[C@H](OC(C)=O)C(C)=C1C3(C)C | 60% |
| CC(=O)O[C@H]1C(=O)[C@]2(C)[C@@H](OC(=O)COc3ccc4ccccc4c3)C[C@H]3OC[C@@]3(OC(C)=O)[C@H]2[C@H](OC(=O)c2ccccc2)[C@]2(O)C[C@H](OC(C)=O)C(C)=C1C2(C)C | 86% |
| CC(=O)O[C@H]1C(=O)[C@]2(C)[C@@H](OC(=O)Cc3ccc(-c4ccccc4)cc3)C[C@H]3OC[C@@]3(OC(C)=O)[C@H]2[C@H](OC(=O)c2ccccc2)[C@]2(O)C[C@H](OC(C)=O)C(C)=C1C2(C)C | 57% |
| CC(=O)O[C@H]1C(=O)[C@]2(C)[C@@H](OC(=O)/C=C/c3ccc(Sc4ccccc4)cc3)C[C@H]3OC[C@@]3(OC(C)=O)[C@H]2[C@H](OC(=O)c2ccccc2)[C@]2(O)C[C@H](OC(C)=O)C(C)=C1C2(C)C | 64% |
| CC(=O)O[C@H]1C(=O)[C@]2(C)[C@@H](OC(=O)/C=C/c3cccc(C(=O)c4ccc(C)cc4)c3)C[C@H]3OC[C@@]3(OC(C)=O)[C@H]2[C@H](OCc2ccccc2)[C@]2(O)C[C@H](OC(C)=O)C(C)=C1C2(C)C | 91% |
| CC(=O)O[C@H]1C(=O)[C@]2(C)[C@@H](OC(=O)/C=C/c3ccc(Oc4ccccc4)cc3)C[C@H]3OC[C@@]3(OC(C)=O)[C@H]2[C@H](OC(=O)c2ccccc2)[C@]23OC(=O)O[C@H]2[C@H](OC(C)=O)C(C)=C1C3(C)C | 90% |
| CC(=O)O[C@H]1C(=O)[C@]2(C)[C@@H](OC(=O)c3ccc(C(=O)c4ccccc4)cc3)C[C@H]3OC[C@@]3(OC(C)=O)[C@H]2[C@H](OC(=O)c2ccccc2)[C@]23OC(=O)O[C@H]2[C@H](OC(C)=O)C(C)=C1C3(C)C | 92% |
| CC(=O)O[C@H]1C(=O)[C@]2(C)[C@@H](OC(=O)c3ccnc4ccccc34)C[C@H]3OC[C@@]3(OC(C)=O)[C@H]2[C@H](OC(=O)c2ccccc2)[C@]2(O)C[C@H](OC(C)=O)C(C)=C1C2(C)C | 36% |
| CC(=O)O[C@H]1C(=O)[C@]2(C)[C@@H](OC(=O)CCc3ccc(Cc4ccccc4)cc3)C[C@H]3OC[C@@]3(OC(C)=O)[C@H]2[C@H](OC(=O)c2ccccc2)[C@]2(O)C[C@H](OC(C)=O)C(C)=C1C2(C)C | 16% |
| CC(=O)O[C@H]1C(=O)[C@]2(C)[C@@H](OC(=O)CCc3c(F)c(F)c(F)c(F)c3F)C[C@H]3OC[C@@]3(OC(C)=O)[C@H]2[C@H](OC(=O)c2ccccc2)[C@]2(O)C[C@H](OC(C)=O)C(C)=C1C2(C)C | 59% |
| CC(=O)O[C@H]1C(=O)[C@]2(C)[C@@H](OC(=O)c3ccc(C(=O)c4ccccc4)cc3)C[C@H]3OC[C@@]3(OC(C)=O)[C@H]2[C@H](OC(=O)c2ccccc2)[C@]2(O)C[C@H](OC(C)=O)C(C)=C1C2(C)C | 88% |
| CC(=O)O[C@H]1C(=O)[C@]2(C)[C@@H](OC(=O)COc3cccc4ccccc34)C[C@H]3OC[C@@]3(OC(C)=O)[C@H]2[C@H](OC(=O)c2ccccc2)[C@]2(O)C[C@H](OC(C)=O)C(C)=C1C2(C)C | 60% |
| CC(=O)O[C@H]1C(=O)[C@]2(C)[C@@H](OC(=O)/C=C/c3ccc(C(=O)c4cc(C(F)(F)F)cc(C(F)(F)F)c4)cc3)C[C@H]3OC[C@@]3(OC(C)=O)[C@H]2[C@H](OC(=O)c2ccccc2)[C@]2(O)C[C@H](OC(C)=O)C(C)=C1C2(C)C | 36% |
| CC(=O)O[C@H]1C(=O)[C@]2(C)[C@@H](OC(=O)/C=C/c3ccc4c(c3)C(=O)c3ccccc3-4)C[C@H]3OC[C@@]3(OC(C)=O)[C@H]2[C@H](OC(=O)c2ccccc2)[C@]2(O)C[C@H](OC(C)=O)C(C)=C1C2(C)C | 91% |
| CC(=O)O[C@H]1C(=O)[C@]2(C)[C@@H](OC(=O)c3cnc4ccccc4c3)C[C@H]3OC[C@@]3(OC(C)=O)[C@H]2[C@H](OC(=O)c2ccccc2)[C@]2(O)C[C@H](OC(C)=O)C(C)=C1C2(C)C | 41% |
| CC(=O)O[C@H]1C(=O)[C@]2(C)[C@@H](OC(=O)/C=C/c3ccc(C(=O)c4ccccc4)cc3)C[C@H]3OC[C@@]3(OC(C)=O)[C@H]2[C@H](OC(=O)c2ccccc2)[C@]23OC(=O)O[C@H]2[C@H](OC(C)=O)C(C)=C1C3(C)C | 94% |
